Source: article PMC7736581, “Activation of the IRE1 RNase through remodeling of the kinase front pocket by ATP-competitive ligands” (Nature Communications, 2020)

How the values were obtained:
Experiment in all cases: biochemical
Design in all cases: Invitrogen kinase panel: Z'Lyte activity (ATP at Km) or LanthaScreen competitive ATP-site binding, percent inhibition
ALK2 = molecular target: T1, ALK2 (Homo sapiens, UniProt Q04771)
T1 construct: gene ACVR1

CK1_gamma1 = molecular target: T2, CK1_gamma1 (Homo sapiens, UniProt Q9HCP0)
T2 construct: gene CSNK1G1
T2 sequence (Q9HCP0 whole entry): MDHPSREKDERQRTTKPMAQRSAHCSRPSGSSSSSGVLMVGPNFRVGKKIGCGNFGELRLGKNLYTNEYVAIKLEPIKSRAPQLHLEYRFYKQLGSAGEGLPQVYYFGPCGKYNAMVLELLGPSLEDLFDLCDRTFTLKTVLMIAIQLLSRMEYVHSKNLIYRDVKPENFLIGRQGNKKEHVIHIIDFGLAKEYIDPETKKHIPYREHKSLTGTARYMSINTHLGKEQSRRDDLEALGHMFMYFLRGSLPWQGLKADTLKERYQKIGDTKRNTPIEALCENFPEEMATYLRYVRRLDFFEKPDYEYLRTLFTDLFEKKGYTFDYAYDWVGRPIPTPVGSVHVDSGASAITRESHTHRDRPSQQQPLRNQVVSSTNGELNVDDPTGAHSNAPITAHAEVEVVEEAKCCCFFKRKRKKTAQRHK

CK1_gamma2 = molecular target: T3, CK1_gamma2 (Homo sapiens, UniProt P78368)
T3 construct: gene CSNK1G2
T3 sequence (P78368 whole entry): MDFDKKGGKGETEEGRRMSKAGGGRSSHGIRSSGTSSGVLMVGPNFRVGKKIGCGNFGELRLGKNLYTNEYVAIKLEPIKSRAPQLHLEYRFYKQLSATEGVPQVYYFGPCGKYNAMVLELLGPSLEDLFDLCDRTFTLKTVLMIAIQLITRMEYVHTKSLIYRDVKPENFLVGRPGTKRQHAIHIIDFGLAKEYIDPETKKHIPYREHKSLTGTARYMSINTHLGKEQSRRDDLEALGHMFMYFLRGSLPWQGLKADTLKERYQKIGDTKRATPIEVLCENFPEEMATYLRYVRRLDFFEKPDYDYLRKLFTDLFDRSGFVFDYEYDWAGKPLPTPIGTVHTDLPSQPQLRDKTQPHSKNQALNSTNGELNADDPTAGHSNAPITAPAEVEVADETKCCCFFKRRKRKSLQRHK

CSF1R = CSF1R (Homo sapiens, UniProt P07333)
DDR1 = DDR1 (Homo sapiens, UniProt Q08345)
ERN1 = ERN1 (Homo sapiens, UniProt O75460)
Flt4 = Flt4 (Homo sapiens, UniProt P35916)
GSK3_alpha = molecular target: T4, GSK3_alpha (Homo sapiens, UniProt P49840)
T4 construct: gene GSK3A

HIPK1 = HIPK1 (Homo sapiens, UniProt Q86Z02)
Chain of HIPK1 (Q86Z02 whole entry): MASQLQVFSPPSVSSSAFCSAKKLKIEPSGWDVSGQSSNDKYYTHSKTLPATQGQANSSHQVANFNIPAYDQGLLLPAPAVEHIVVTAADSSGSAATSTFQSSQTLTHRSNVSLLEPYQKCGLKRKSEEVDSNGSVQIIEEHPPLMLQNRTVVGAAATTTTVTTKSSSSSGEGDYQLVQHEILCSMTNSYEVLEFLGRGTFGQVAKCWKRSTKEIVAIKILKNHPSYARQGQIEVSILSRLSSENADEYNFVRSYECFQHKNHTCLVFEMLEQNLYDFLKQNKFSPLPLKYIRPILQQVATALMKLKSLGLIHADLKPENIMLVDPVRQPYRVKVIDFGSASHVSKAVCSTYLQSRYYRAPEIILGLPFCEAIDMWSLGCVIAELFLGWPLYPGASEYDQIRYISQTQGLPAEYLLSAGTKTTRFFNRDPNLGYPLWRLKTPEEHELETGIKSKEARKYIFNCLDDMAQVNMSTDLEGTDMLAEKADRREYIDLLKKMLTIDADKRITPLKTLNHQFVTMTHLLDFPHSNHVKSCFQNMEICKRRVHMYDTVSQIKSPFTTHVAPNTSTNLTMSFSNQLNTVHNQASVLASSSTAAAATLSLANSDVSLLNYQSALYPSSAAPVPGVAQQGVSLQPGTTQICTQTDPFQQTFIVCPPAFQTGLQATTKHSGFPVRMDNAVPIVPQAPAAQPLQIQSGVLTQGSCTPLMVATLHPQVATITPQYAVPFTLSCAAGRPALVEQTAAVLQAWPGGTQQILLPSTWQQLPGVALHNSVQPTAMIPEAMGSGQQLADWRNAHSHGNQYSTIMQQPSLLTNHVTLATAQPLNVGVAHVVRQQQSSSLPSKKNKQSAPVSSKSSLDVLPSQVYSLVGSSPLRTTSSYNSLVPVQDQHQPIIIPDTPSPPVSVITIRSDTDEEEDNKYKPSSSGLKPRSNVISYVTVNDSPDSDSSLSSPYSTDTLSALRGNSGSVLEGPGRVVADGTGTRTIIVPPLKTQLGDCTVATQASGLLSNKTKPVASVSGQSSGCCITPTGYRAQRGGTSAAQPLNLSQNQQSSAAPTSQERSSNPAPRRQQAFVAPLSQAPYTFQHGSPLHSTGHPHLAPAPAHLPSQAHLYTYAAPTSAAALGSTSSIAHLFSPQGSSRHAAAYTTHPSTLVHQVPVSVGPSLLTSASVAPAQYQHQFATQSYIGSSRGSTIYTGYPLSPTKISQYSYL

LIMK1 = LIMK1 (Homo sapiens, UniProt P53667)
MELK = MELK (Homo sapiens, UniProt Q14680)
PAK4 = PAK4 (Homo sapiens, UniProt O96013)
PAK6 = PAK6 (Homo sapiens, UniProt Q9NQU5)
PDK1(direct) = molecular target: T5, PDK1(direct) (Homo sapiens, UniProt O15530)
T5 construct: gene PDPK1; direct

PI3K-A = molecular target: T6, PI3K-A (Homo sapiens, UniProt P42336)
T6 construct: gene PIK3CA

PKC_epsilon = molecular target: T7, PKC_epsilon (Homo sapiens, UniProt Q02156)
T7 construct: gene PRKCE
T7 sequence (Q02156 whole entry): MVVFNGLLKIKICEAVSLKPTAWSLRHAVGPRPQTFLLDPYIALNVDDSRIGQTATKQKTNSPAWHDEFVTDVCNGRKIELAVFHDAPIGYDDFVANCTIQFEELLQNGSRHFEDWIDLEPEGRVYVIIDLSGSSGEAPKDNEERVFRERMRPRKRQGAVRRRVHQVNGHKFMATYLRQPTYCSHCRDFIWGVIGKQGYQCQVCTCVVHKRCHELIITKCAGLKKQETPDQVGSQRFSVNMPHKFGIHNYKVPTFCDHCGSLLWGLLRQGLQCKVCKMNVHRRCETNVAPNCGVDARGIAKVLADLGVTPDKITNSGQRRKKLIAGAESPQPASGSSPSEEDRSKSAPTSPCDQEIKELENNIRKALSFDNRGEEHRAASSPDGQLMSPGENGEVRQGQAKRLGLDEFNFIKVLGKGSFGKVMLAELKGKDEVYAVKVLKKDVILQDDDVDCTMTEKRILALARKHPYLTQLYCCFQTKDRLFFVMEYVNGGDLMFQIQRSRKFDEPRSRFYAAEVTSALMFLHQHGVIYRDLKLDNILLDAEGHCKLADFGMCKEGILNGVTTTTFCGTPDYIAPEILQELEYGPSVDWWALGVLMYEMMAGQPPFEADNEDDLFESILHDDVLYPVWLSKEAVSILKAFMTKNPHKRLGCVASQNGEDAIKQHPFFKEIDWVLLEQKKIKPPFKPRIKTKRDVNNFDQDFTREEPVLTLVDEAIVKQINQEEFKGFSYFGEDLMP

ROCK2 = ROCK2 (Homo sapiens, UniProt O75116)
Ron = molecular target: T8, Ron (Homo sapiens, UniProt Q04912)
T8 construct: gene MST1R

Rsk1 = molecular target: T9, Rsk1 (Homo sapiens, UniProt Q15418)
T9 construct: gene RPS6KA1
T9 sequence (Q15418 whole entry): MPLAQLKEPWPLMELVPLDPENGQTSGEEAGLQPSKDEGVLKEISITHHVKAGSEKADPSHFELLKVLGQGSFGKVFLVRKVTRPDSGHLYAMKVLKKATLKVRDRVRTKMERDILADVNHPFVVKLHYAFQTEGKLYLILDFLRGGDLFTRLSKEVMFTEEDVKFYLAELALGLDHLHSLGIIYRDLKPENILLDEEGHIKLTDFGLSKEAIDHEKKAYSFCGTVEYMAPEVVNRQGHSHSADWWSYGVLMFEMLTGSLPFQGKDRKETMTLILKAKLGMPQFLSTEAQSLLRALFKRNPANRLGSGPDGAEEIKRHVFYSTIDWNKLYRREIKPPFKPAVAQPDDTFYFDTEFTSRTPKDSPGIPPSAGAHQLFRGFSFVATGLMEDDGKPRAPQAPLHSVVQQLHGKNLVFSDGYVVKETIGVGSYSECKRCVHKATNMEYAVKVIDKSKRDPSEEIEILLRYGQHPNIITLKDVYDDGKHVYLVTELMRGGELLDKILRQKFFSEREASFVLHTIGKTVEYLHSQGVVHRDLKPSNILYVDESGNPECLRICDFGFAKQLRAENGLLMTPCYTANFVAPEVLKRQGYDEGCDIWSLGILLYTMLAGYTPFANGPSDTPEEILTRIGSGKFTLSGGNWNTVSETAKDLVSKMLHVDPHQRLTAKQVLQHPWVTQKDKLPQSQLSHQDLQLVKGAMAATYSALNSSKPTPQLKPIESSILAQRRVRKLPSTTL

SRPK1 = SRPK1 (Homo sapiens, UniProt Q96SB4)
TAO2 = molecular target: T10, TAO2 (Homo sapiens, UniProt Q9UL54)
T10 construct: gene TAOK2

ZAP-70 = molecular target: T11, ZAP-70 (Homo sapiens, UniProt P43403)
T11 construct: gene ZAP70
T11 sequence (P43403 whole entry): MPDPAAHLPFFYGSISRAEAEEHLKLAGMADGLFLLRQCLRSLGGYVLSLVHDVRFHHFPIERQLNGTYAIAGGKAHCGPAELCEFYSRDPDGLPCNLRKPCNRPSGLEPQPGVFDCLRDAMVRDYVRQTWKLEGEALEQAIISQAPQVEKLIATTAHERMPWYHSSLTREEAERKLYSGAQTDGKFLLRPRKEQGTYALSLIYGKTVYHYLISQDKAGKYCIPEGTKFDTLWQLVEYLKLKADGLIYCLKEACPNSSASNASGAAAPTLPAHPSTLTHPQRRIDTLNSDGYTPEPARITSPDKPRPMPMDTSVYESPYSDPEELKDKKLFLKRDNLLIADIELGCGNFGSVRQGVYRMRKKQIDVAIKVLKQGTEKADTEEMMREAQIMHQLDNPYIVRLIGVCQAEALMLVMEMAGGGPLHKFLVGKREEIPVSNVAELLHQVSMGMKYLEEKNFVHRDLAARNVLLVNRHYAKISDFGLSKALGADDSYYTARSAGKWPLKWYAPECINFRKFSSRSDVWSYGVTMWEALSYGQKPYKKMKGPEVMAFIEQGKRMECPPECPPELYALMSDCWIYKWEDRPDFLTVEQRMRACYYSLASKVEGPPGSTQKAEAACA

eEF-2K = molecular target: T12, eEF-2K (Homo sapiens, UniProt O00418)
T12 construct: gene EEF2K

mTOR = mTOR (Homo sapiens, UniProt P42345)

T1 sequence (Q04771 whole entry): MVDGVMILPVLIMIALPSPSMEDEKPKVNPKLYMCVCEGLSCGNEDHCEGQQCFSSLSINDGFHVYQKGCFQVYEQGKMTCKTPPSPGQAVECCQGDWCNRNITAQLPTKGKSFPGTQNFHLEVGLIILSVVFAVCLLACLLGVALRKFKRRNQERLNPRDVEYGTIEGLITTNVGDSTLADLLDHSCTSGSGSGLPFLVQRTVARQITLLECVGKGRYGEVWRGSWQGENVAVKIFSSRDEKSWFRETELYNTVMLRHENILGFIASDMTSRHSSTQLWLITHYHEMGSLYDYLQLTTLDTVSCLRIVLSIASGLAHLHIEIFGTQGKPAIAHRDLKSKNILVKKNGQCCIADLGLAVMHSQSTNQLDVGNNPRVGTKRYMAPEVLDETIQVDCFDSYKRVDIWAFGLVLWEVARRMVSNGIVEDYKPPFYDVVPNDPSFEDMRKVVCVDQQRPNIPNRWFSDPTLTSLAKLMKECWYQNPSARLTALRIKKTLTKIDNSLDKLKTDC

SMILES | inhibition at 1 µM (ALK2) | inhibition at 1 µM (CK1_gamma1) | inhibition at 1 µM (CK1_gamma2) | inhibition at 1 µM (CSF1R) | inhibition at 1 µM (DDR1) | inhibition at 1 µM (ERN1) | inhibition at 1 µM (Flt4) | inhibition at 1 µM (GSK3_alpha) | inhibition at 1 µM (HIPK1) | inhibition at 1 µM (LIMK1) | inhibition at 1 µM (MELK) | inhibition at 1 µM (PAK4) | inhibition at 1 µM (PAK6) | inhibition at 1 µM (PDK1(direct)) | inhibition at 1 µM (PI3K-A) | inhibition at 1 µM (PKC_epsilon) | inhibition at 1 µM (ROCK2) | inhibition at 1 µM (Ron) | inhibition at 1 µM (Rsk1) | inhibition at 1 µM (SRPK1) | also measured
CCOC(=O)Nc1cccc2c(Oc3ncccc3-c3ccnc(N[C@H]4CCCNC4)n3)c(C)ccc12 [G-1749] | 1% | -1.5% | -4.5% | 7% | 46% | 99.5% | 5.5% | 2.5% | 1% | 4.5% | 33% | 0% | 12.5% | 5% | 10% | 14.5% | 1% | -6% | 3% | 6.5% | inhibition at 1 µM (TAO2): 72.5%; inhibition at 1 µM (ZAP-70): 3%; inhibition at 1 µM (eEF-2K): 5%; inhibition at 1 µM (mTOR): 5%
CC#CC(=O)Nc1cccc2c(Oc3ncccc3-c3ccnc(N[C@H]4CCCNC4)n3)c(C)ccc12 [G-7658] | 0.5% | 9% | -4.5% | -7.5% | 29% | 106% | 6.5% | 10.5% | 0.5% | 15% | 19.5% | 0% | 11% | 3.5% | -18.5% | 9.5% | -0.5% | 4% | 1.5% | 5% | inhibition at 1 µM (TAO2): 74%; inhibition at 1 µM (ZAP-70): 4%; inhibition at 1 µM (eEF-2K): 5%; inhibition at 1 µM (mTOR): 7%
